Molecules are shown by their SMILES.

The assay relates to Plasmodium falciparum. The assay can be described thus: Antiplasmodial activity against Plasmodium falciparum 3D7 infected in human erythrocytes after 48 hrs by [3H]hypoxanthine incorporation assay. The class given is functional, organism-based.
For orientation: IC50 means the concentration at which inhibition is half-maximal. As for `COC(=O)C1Cc2c([nH]c3ccccc23)C(c2c(CO)cnc(C)c2O)N1` (stereo not given), the IC50 worked out at 14 µM. This lies in the double-digit micromolar range.
In the case of `COC(=O)[C@@H]1Cc2c([nH]c3ccccc23)[C@@H](c2c(CO)cnc(C)c2O)N1`, the IC50 was found to be 22 µM.
Under `COC(=O)[C@H]1Cc2c([nH]c3ccccc23)[C@H](c2c(CO)cnc(C)c2O)N1` stands 8 µM; under `COC(=O)[C@@H]1Cc2c([nH]c3ccccc23)[C@H](c2c(CO)cnc(C)c2O)N1`, 91 µM; under `COC(=O)[C@H]1Cc2c([nH]c3ccccc23)[C@@H](c2c(CO)cnc(C)c2O)N1`, 108 µM.

Values taken from ChEMBL document CHEMBL3124773, “Stereoselective preparation of pyridoxal 1,2,3,4-tetrahydro-β-carboline derivatives and the influence of their absolute and relative configuration on the proliferation of the malaria parasite Plasmodium falciparum” (Bioorg Med Chem, 2014).
